Assay [1] addresses T1, Serine/threonine-protein kinase MAK (Homo sapiens) (UniProt P20794).
T1 sequence (whole entry): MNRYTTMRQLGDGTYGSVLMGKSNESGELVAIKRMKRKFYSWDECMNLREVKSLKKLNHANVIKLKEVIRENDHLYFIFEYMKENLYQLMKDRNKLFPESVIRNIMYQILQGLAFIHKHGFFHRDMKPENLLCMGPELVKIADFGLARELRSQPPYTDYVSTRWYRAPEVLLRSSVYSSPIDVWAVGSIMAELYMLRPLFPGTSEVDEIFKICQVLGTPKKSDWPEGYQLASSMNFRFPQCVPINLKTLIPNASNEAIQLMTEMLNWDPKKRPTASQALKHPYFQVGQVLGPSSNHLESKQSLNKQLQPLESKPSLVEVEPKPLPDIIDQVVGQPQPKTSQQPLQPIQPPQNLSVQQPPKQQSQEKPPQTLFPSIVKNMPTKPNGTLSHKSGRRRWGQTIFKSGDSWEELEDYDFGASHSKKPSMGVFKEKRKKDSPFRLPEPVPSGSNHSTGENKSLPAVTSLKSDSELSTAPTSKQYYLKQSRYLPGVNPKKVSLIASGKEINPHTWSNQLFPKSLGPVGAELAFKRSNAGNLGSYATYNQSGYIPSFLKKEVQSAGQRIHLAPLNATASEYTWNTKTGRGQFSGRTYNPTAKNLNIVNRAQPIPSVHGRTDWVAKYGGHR
The conditions noted are these: at 10 µM.

Assay [2] deals with Epidermal growth factor receptor (Homo sapiens, UniProt P00533). Briefly: Selectivity interaction (Kinase panel (Invitrogen)) EUB0000639a EGFR. The settings on record: at 200 nM.
The target in assay [3] is T2, Serine/threonine-protein kinase LATS1 (Homo sapiens) (UniProt O95835).
T2 sequence (whole entry): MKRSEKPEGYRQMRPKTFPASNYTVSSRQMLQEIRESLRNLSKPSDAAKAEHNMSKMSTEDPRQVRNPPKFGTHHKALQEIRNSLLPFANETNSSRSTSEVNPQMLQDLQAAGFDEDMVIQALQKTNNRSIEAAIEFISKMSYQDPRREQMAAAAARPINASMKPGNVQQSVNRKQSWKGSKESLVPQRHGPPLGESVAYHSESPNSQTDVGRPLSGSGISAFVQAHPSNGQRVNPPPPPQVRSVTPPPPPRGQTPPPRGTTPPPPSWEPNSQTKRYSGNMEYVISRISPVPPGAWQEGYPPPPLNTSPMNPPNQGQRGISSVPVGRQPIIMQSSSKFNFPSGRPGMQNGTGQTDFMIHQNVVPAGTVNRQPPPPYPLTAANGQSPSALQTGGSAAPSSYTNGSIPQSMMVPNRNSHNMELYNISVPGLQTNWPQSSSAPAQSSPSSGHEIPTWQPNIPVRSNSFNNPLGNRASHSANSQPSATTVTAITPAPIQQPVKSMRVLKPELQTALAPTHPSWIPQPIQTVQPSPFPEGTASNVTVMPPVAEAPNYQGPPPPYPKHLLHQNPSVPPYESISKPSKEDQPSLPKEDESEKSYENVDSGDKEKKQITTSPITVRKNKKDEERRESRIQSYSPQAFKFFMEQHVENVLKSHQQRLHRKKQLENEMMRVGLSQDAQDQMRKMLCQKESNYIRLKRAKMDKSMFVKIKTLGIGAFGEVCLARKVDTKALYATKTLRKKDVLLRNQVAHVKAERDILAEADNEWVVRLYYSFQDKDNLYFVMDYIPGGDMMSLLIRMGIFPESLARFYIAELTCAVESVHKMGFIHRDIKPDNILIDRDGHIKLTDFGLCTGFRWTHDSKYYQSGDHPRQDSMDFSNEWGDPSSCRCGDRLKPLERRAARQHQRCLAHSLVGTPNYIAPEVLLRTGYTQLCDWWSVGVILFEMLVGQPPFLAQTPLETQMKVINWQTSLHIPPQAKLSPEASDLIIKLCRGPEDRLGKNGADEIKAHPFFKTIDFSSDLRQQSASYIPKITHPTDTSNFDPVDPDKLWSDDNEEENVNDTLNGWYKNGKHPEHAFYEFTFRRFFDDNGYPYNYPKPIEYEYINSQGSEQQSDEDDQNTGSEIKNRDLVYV
The assay can be described thus: Selectivity interaction (Kinase panel (KiNativ target engagement assay in Jurkat cells)) EUB0001635a LATS1. The conditions noted are these: at 1 µM. The assay is classed as cell-based.

Sequence of Epidermal growth factor receptor (P00533 whole entry): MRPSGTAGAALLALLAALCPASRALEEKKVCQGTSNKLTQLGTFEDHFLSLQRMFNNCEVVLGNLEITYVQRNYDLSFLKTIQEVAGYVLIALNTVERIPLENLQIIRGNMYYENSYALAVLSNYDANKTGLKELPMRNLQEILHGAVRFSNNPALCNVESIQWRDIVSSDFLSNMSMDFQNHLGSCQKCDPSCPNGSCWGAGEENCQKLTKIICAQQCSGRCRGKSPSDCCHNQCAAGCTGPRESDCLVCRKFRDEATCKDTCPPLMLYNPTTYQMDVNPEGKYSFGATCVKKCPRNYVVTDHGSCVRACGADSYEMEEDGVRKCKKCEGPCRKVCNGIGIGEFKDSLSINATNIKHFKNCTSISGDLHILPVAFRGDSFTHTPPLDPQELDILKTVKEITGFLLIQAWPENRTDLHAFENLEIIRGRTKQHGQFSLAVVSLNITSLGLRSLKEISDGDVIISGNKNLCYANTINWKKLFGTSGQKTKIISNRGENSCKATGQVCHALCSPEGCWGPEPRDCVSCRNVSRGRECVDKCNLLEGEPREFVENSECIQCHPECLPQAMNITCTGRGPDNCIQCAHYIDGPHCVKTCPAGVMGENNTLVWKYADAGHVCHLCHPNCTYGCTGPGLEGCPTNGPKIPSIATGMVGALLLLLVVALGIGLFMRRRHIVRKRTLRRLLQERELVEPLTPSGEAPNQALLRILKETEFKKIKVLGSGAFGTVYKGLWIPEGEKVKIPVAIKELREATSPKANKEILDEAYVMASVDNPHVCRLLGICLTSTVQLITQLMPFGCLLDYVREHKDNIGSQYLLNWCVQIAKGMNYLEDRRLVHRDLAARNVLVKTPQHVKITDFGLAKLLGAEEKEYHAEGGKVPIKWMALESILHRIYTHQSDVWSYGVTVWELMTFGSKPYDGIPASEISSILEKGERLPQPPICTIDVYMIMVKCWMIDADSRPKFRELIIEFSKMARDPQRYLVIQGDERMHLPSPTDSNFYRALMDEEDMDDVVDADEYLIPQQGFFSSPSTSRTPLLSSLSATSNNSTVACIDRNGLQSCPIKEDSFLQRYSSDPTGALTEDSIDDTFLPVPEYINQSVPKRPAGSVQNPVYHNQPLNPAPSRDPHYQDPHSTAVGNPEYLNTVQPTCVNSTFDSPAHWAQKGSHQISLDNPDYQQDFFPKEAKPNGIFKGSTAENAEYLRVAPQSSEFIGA

For the molecule `Cc1cc([C@@H](C)Nc2ccccc2C(=O)O)c2nc(N3CCOCC3)cc(=O)n2c1` [AZD-6482], the % of control in assay [1] turned out to be 67%.
For the molecule `CC[C@@H]1[C@H](F)C(=O)N[C@@H]1COc1nccc2cc(C(N)=O)c(OC)cc12` [ZIMLOVISERTIB], the % of inhibition in assay [2] was 17%.
`C=CC(=O)Nc1ccc(C(=O)Nc2[nH]nc3c2CN(C(=O)N[C@H](CN(C)C)c2ccccc2)C3(C)C)cc1`: the % of engagement in assay [3] came to 7.2%.

The record behind these values is ChEMBL document CHEMBL5465560, “Selectivity Literature for EUbOPEN Chemogenomic Library” (2024).
